Laboratory results from paper PMC8286840, “Identifying SARS-CoV-2 antiviral compounds by screening for small molecule inhibitors of Nsp3 papain-like protease” (Biochemical Journal, 2021).
Structures can show the parent of a compound that is named as a salt. Where two headings read alike, the source gives them in different places.

What was measured:
[1] = target: T1, SARS-CoV-2 PLpro (nsp3 1564–1878) (Severe acute respiratory syndrome coronavirus 2, UniProt P0DTD1); assay: biochemical; set-up: FRET-quenched peptide (Pro3) cleavage by PLpro, 10 min pre-incubation, slope over 20 min, normalised to no-compound control; settings: read-out: % of control remaining
[2] = target: T1, SARS-CoV-2 PLpro (nsp3 1564–1878); assay: biochemical; set-up: FRET-quenched peptide (Pro3) cleavage by PLpro, 10 min pre-incubation, slope over 20 min, normalised to no-compound control; settings: read-out: % of control remaining; remark: listed apart in the source

SMILES: O=C1C[C@@H](c2ccc(O)cc2)Oc2cc(O)cc(O)c21 [Naringenin]
- remaining activity at 1.25 µM ([1]; Well no.=3326, low concentration screen): 96.4%
- remaining activity at 3.75 µM ([2]; Well no.=3326, high concentration screen): 98.3%

SMILES: CC(C)(C)[C@]1(O)CCN2C[C@H]3c4ccccc4CCc4cccc(c43)[C@@H]2C1 (racemic)
- remaining activity at 1.25 µM ([1]; Well no.=135, low concentration screen): 101%
- remaining activity at 3.75 µM ([2]; Well no.=135, high concentration screen): 102%

SMILES: Fc1ccc(C(OCCCc2cnc[nH]2)c2ccc(F)cc2)cc1 [3-(1H-Imidazol-4-yl)propyl di(p-fluorophenyl)methyl ether hydrochloride]
- remaining activity at 1.25 µM ([1]; Well no.=1019, low concentration screen): 93.6%
- remaining activity at 3.75 µM ([2]; Well no.=1019, high concentration screen): 95.3%

SMILES: C[C@@H](Nc1ncnc2[nH]c(-c3ccc(O)cc3)cc12)c1ccccc1 [PKI-166]
- remaining activity at 1.25 µM ([1]; Well no.=6037, low concentration screen): 94.4%
- remaining activity at 3.75 µM ([2]; Well no.=6037, high concentration screen): 78.3%

SMILES: COCc1nc2c([nH]1)c(=O)n(C)c(=O)n2CC(C)C [8-Methoxymethyl-3-isobutyl-1-methylxanthine]
- remaining activity at 1.25 µM ([1]; Well no.=970, low concentration screen): 103%
- remaining activity at 3.75 µM ([2]; Well no.=970, high concentration screen): 102%

SMILES: CC1(C)S[C@@H]2[C@H](NC(=O)C(C(=O)O)c3ccccc3)C(=O)N2[C@H]1C(=O)O (stereo partly shown) [Carbenicillin disodium]
- remaining activity at 1.25 µM ([1]; Well no.=5030, low concentration screen): 96.4%
- remaining activity at 3.75 µM ([2]; Well no.=5030, high concentration screen): 96.8%

SMILES: O=Cc1cn(Cc2ccc(Cl)cc2)c2ccccc12 [Oncrasin-1]
- remaining activity at 1.25 µM [1]: 95.2%
- remaining activity at 3.75 µM [2]: 101%

SMILES: CC1(C)CNc2cc(NC(=O)c3cccnc3NCc3ccncc3)ccc21 [Motesanib Diphosphate (AMG-706)]
- remaining activity at 1.25 µM ([1]; Well no.=4611, low concentration screen): 101%
- remaining activity at 3.75 µM ([2]; Well no.=4611, high concentration screen): 100%

SMILES: CN(C)CCCn1cc(C2=C(c3c[nH]c4ccccc34)C(=O)NC2=O)c2ccccc21 [GF 109203X - 2-[1-(3-Dimethylaminopropyl)indol-3-yl]-3-(indol-3-yl) maleimide]
- remaining activity at 1.25 µM ([1]; Well no.=2340, low concentration screen): 103%
- remaining activity at 3.75 µM ([2]; Well no.=2340, high concentration screen): 106%

SMILES: Cc1c(C(=O)NN2CCCCC2)nn(-c2ccc(Cl)cc2Cl)c1-c1ccc(Cl)cc1 [Rimonabant]
- remaining activity at 1.25 µM ([1]; Well no.=8438, low concentration screen): 92.2%
- remaining activity at 3.75 µM ([2]; Well no.=8438, high concentration screen): 97%

SMILES: CN1CCN2c3ccccc3Cc3ccccc3C2C1 (stereo not shown) [Mianserin hydrochloride]
- remaining activity at 1.25 µM ([1]; Well no.=874, low concentration screen): 107%
- remaining activity at 3.75 µM ([2]; Well no.=874, high concentration screen): 106%

SMILES: Cn1cc(-c2[nH]c3cc(NC(=O)[C@H](N)C4CCCCC4)cc4c3c2C=NNC4=O)cn1 [PF-477736]
- remaining activity at 1.25 µM ([1]; Well no.=4836, low concentration screen): 99.5%
- remaining activity at 3.75 µM ([2]; Well no.=4836, high concentration screen): 101%

SMILES: CC(=O)Oc1cc2c(s1)CCN(C(C(=O)C1CC1)c1ccccc1F)C2 (stereo not shown) [Prasugrel]
- remaining activity at 1.25 µM ([1]; Well no.=6562, low concentration screen): 97%
- remaining activity at 3.75 µM ([2]; Well no.=6562, high concentration screen): 102%

SMILES: CC(=O)[C@H]1CC[C@H]2[C@@H]3CC=C4C[C@@H](O)CC[C@]4(C)[C@H]3CC[C@]12C [Pregnenolone]
- remaining activity at 1.25 µM ([1]; Well no.=2151, low concentration screen): 103%
- remaining activity at 1.25 µM ([1]; Well no.=6277, low concentration screen): 106%
- remaining activity at 1.25 µM ([1]; Well no.=6919, low concentration screen): 108%
- remaining activity at 3.75 µM ([2]; Well no.=2151, high concentration screen): 103%
- remaining activity at 3.75 µM ([2]; Well no.=6277, high concentration screen): 102%
- remaining activity at 3.75 µM ([2]; Well no.=6919, high concentration screen): 106%

SMILES: COc1cc2cc(c1Cl)N(C)C(=O)C[C@H](OC(=O)[C@H](C)N(C)C(=O)CCC(C)(C)SSCCCC(=O)ON1C(=O)CCC1=O)[C@]1(C)O[C@H]1[C@H](C)[C@@H]1C[C@@](O)(NC(=O)O1)[C@H](OC)/C=C\C=C(\C)C2 [SPDB-DM4]
- remaining activity at 1.25 µM ([1]; Well no.=7700, low concentration screen): 106%
- remaining activity at 3.75 µM ([2]; Well no.=7700, high concentration screen): 106%

SMILES: CC[C@H]1OC(=O)[C@H](C)[C@@H](O[C@H]2C[C@@](C)(OC)[C@@H](O)[C@H](C)O2)[C@H](C)[C@@H](O[C@@H]2O[C@H](C)C[C@H](N(C)C)[C@H]2O)[C@](C)(OC)C[C@@H](C)C(=O)[C@H](C)[C@@H](O)[C@]1(C)O [Clarithromycin]
- remaining activity at 1.25 µM ([1]; Well no.=2267, low concentration screen): 89%
- remaining activity at 3.75 µM ([2]; Well no.=2267, high concentration screen): 89.2%

SMILES: CNC(=O)[C@H]1O[C@@H](n2cnc3c(NCc4cccc(I)c4)ncnc32)[C@H](O)[C@@H]1O [IB-MECA]
- remaining activity at 1.25 µM ([1]; Well no.=923, low concentration screen): 94.3%
- remaining activity at 3.75 µM ([2]; Well no.=923, high concentration screen): 99.3%

SMILES: Cn1sc(=O)n(Cc2ccccc2)c1=O [GSK-3b Inhibitor I]
- remaining activity at 1.25 µM ([1]; Well no.=2460, low concentration screen): 106%
- remaining activity at 3.75 µM ([2]; Well no.=2460, high concentration screen): 108%

SMILES: CC(C)C[C@@H](C(=O)N[C@H](C(=O)OC1CCCC1)c1ccccc1)[C@H](O)C(=O)NO [Tosedostat (CHR2797)]
- remaining activity at 1.25 µM ([1]; Well no.=4880, low concentration screen): 93.4%
- remaining activity at 3.75 µM ([2]; Well no.=4880, high concentration screen): 88.9%

SMILES: CC(=O)Oc1ccccc1C(=O)Nc1ncc([N+](=O)[O-])s1 [Nitazoxanide]
- remaining activity at 1.25 µM ([1]; Well no.=5482, low concentration screen): 101%
- remaining activity at 3.75 µM ([2]; Well no.=5482, high concentration screen): 101%

SMILES: Fc1ccc([C@@H]2CCNC[C@H]2COc2ccc3c(c2)OCO3)cc1 [Paroxetine]
- remaining activity at 1.25 µM ([1]; Well no.=2093, low concentration screen): 103%
- remaining activity at 3.75 µM ([2]; Well no.=2093, high concentration screen): 101%

SMILES: O=C(/C=C/c1ccc(O)c(O)c1)c1ccc(O)cc1O [Butein]
- remaining activity at 1.25 µM ([1]; Well no.=3272, low concentration screen): 96.3%
- remaining activity at 3.75 µM ([2]; Well no.=3272, high concentration screen): 97.5%

SMILES: CC(C)=CCC[C@](C)(O)[C@H]1CC[C@]2(C)[C@@H]1[C@H](O)C[C@@H]1[C@@]3(C)CC[C@H](O[C@@H]4O[C@H](CO)[C@@H](O)[C@H](O)[C@H]4O)C(C)(C)[C@@H]3CC[C@]12C [Ginsenoside Rh2]
- remaining activity at 1.25 µM ([1]; Well no.=6590, low concentration screen): 98.4%
- remaining activity at 3.75 µM ([2]; Well no.=6590, high concentration screen): 102%

SMILES: C[C@@H]1OC(=O)[C@H]2C[C@H]3CCCC[C@@H]3[C@@H](/C=C/[C@H]3CCC[C@H](C)N3C)[C@@H]12 [(+)-Himbacine]
- remaining activity at 1.25 µM ([1]; Well no.=706, low concentration screen): 99.2%
- remaining activity at 3.75 µM ([2]; Well no.=706, high concentration screen): 98.4%

SMILES: O=C(c1cc(S(=O)(=O)Nc2ccccc2F)c(F)cc1Cl)N1CCN2CCC[C@@H]2C1 [ABT-639]
- remaining activity at 1.25 µM ([1]; Well no.=7880, low concentration screen): 94.2%
- remaining activity at 3.75 µM ([2]; Well no.=7880, high concentration screen): 95.4%

SMILES: Cn1c(NCCN(CCO)CCCc2ccc([N+](=O)[O-])cc2)cc(=O)n(C)c1=O [Nifekalant]
- remaining activity at 1.25 µM ([1]; Well no.=1975, low concentration screen): 105%
- remaining activity at 3.75 µM ([2]; Well no.=1975, high concentration screen): 102%

SMILES: CCCNC(C)C(=O)Nc1ccccc1C (stereo not shown) [Prilocaine]
- remaining activity at 1.25 µM ([1]; Well no.=4616, low concentration screen): 100%
- remaining activity at 3.75 µM ([2]; Well no.=4616, high concentration screen): 93.7%

SMILES: N[C@H](CCCCCP(=O)(O)O)C(=O)O [D(-)-2-Amino-7-phosphonoheptanoic acid]
- remaining activity at 1.25 µM ([1]; Well no.=352, low concentration screen): 96.5%
- remaining activity at 3.75 µM ([2]; Well no.=352, high concentration screen): 98.1%

SMILES: COc1cc2oc(-c3ccc(O)c(O)c3)cc(=O)c2c(O)c1OC [2-(3,4-dihydroxyphenyl)-5-hydroxy-6,7-dimethoxy-4H-chromen-4-one]
- remaining activity at 1.25 µM ([1]; Well no.=5979, low concentration screen): 97%
- remaining activity at 3.75 µM ([2]; Well no.=5979, high concentration screen): 93.4%

SMILES: C=C(C)[C@@H]1CC=C(C(=O)O)CC1 [Perillic acid]
- remaining activity at 1.25 µM ([1]; Well no.=3429, low concentration screen): 93.1%
- remaining activity at 3.75 µM ([2]; Well no.=3429, high concentration screen): 93.2%

SMILES: COc1ccccc1N1CCN(CCCNc2cc(=O)n(C)c(=O)n2C)CC1 [Urapidil hydrochloride]
- remaining activity at 1.25 µM ([1]; Well no.=1476, low concentration screen): 98.2%
- remaining activity at 3.75 µM ([2]; Well no.=1476, high concentration screen): 97.2%

SMILES: CCCCCCCCCCCCCC(=O)O [Myristic acid]
- remaining activity at 1.25 µM ([1]; Well no.=6979, low concentration screen): 101%
- remaining activity at 3.75 µM ([2]; Well no.=6979, high concentration screen): 102%

SMILES: O=C1Nc2ccc(I)cc2/C1=C/c1cc(Br)c(O)c(Br)c1 [GW5074]
- remaining activity at 1.25 µM ([1]; Well no.=525, low concentration screen): 97.2%
- remaining activity at 3.75 µM ([2]; Well no.=525, high concentration screen): 96.1%
